Reference: patent publication US9415104B2, “Combination therapy to enhance NK cell mediated cytotoxicity” (NOVO NORDISK A/S, priority 2008, dated 2016)

Assays:
KIR2DL2 (human) = KIR2DL2 (human) (UniProt P43627)
KIR2DL1 (human) = KIR2DL1 (human) (UniProt P43626)
KIR2DL3 (human) = KIR2DL3 (human) (UniProt P43628)
NK cells = assay: Total NK cell numbers in PBMC culture; assay type: cell-based; settings: 10 μmol/L lenalidomide treatment vs DMSO treatment
Description: The target cells were U266 cells.

[1] = test system: phospho-p44/42 (Erk1/2) Thr202/Tyr204; assay: Western blot of cell lysates, densitometry normalized to GAPDH (FIG. 9); settings: 10 μmol/L lenalidomide; DMSO = 1.00; NK cells
U266 cells [2] = assay: Europium release cytotoxicity assay, U266 target cells pre-incubated with lenalidomide (FIG. 6); assay type: cell-based, human; settings: U266 cultured with lenalidomide (5 µM) for 5 days vs not exposed; different E:T ratios
Description: U266 cells were cultured in RPMI medium with 10% human AB serum (complete medium) in the presence or absence of lenalidomide (5 µM) for 5 days, and then used as target cells in Europium release cytotoxicity assays.
(§1) The Europium release cytotoxicity assay was performed according to the instruction of DELFIA® EuTDA Cytotoxicity AD0116 kit (PerkinElmer).

p-SHIP1 (Tyr1020) = assay: Western blot of cell lysates, densitometry normalized to GAPDH (FIG. 9); settings: 10 μmol/L lenalidomide; DMSO = 1.00; NK cells
[3] = test system: activating ligands MICA, MICA/B, DR4, DR5, ULBP1, ULBP2, PVR and Nectin-2 (CD112) in U266 cells; assay: Expression of activating ligands on U266 cells by flow-cytometry (FIG. 7, FIG. 8); settings: lenalidomide 5 μM for 5 days; at least 4 independent experiments; paired t-test
Description: Briefly, U266 cells were cultured in complete medium in the presence or absence of lenalidomide (5 μM) for 5 days.
In this experiment U266 cells were analyzed as described as in the above. The data were analyzed using the paired t-test.

[4] = test system: NK cell receptors NKG2D, NKG2A, KIR2DL1/S1, KIR2DL2/L3; assay: NK cell receptor expression by flow-cytometry (FIG. 5); assay type: cell-based; settings: purified NK cells cultured 72 hours in presence or absence of lenalidomide
Description: Referring now to FIG. 5. NK cells were purified from buffy coats of normal blood donors by immunomagnetic selection (CD3 depletion followed by CD56 selection) using the autoMACS (Milteny Biotec, Auburn, Calif.). Purified NK cells were cultured in RPMI medium with 10% human AB serum for 72 hours in the presence or absence of lenalidomide. NK cells were then assayed for receptor expression by flow-cytometry.

U266 cells [5] = assay: Europium release cytotoxicity assay, PBMC as effectors against U266 cells (FIG. 3, FIG. 4)
Description: The target cells were U266 cells. […] Lysis of U266 target cells is measured in the presence and absence of 10 μM lenalidomide.
Peripheral blood mononuclear cells (PBMC) were obtained from normal donors following a Ficoll gradient separation. These cells were incubated for 72 hours in lenalidomide (10 μmolL^−1) or DMSO as control, and then used as effector cells against U266 target cells in the presence or absence of 1-7F9 blocking antibody in Europium release cytotoxicity assays. Cytotoxicity assays were performed in the presence or absence of 30 μg/ml 1-7F9. In experiments investigating the combination, PBMC were treated with lenalidomide (10 μmolL^−1) or DMSO (control) for 72 hours, and then used as effector cells in the presence or absence of 1-7F9 (30 μgml^−1) in europium release assay.
Effector cells: PBMC and NK cells were collected from random donors. Target cells: The myeloma (MM) cell line U266 co-expresses class I and II HLA-C ligands. The K562 cell line is negative for HLA class I molecules and acts as negative control for 1-7F9 blocking experiment.
as §1

| Compound | specific lysis of U266 cells by PBMC, Europium release cytotoxicity assay, E:T ratio of 60:1 (% specific lysis) (KIR2DL2 (human)) | specific lysis of U266 cells by PBMC, Europium release cytotoxicity assay, E:T ratio of 60:1 (% specific lysis) (KIR2DL1 (human)) | specific lysis of U266 cells by PBMC, Europium release cytotoxicity assay, E:T ratio of 60:1 (% specific lysis) (KIR2DL3 (human)) | total NK cell numbers in the culture (NK cells) | phospho-p44/42 (Erk1/2) Thr202/Tyr204)/GAPDH [1] | susceptibility of U266 target cells to lysis by NK cells (U266 cells [2]) | P-SHIP1(Tyr1020)/GAPDH (p-SHIP1 (Tyr1020)) | expression of activating ligands on U266 cells [3] | NK cell receptor expression (NKG2D, NKG2A, KIR2DL1, KIR2DL2/3) [4] | specific lysis of U266 cells (U266 cells [5]; E:T ratio 60:1, PBMC treated 72 hours with lenalidomide 10 μmolL^−1 or DMSO, 1-7F9 30 μg/ml, DMSO control 19±4%) [%] | killing of U266 cells by PBMC (percent of specific release) (U266 cells [5]; PBMC treated with 10 μM lenalidomide for 72 h without IL-2, vs DMSO, different E:T ratios) | NK cell induced lysis of U266 cells (U266 cells [5]; PBMC treated with 10 μmolL^−1 lenalidomide for 72 hours with or without interleukin (IL)-2) |
| --- | --- | --- | --- | --- | --- | --- | --- | --- | --- | --- | --- | --- |
| 1-7F9 (antibody) | 32 | 32 | 32 |  |  |  |  |  |  |  |  |  |
| Nc1cccc2c1CN(C1CCC(=O)NC1=O)C2=O (stereo not drawn) [lenalidomide, 3-(4-amino-1-oxo-1,3 dihydro-isoindol-2-yl)piperidine-2,6-dione] |  |  |  | essentially the same | 0.98 | more susceptible to lysis | 1.76 | significantly increase the expression of only MICA, DR4, ULBP2, and CD112 | no effect | 27±1.3 | enhanced cytotoxicity | increased |
